Our source for the IC50 values is US8344181B2, “N-2 adamantanyl-2-phenoxy-acetamide derivatives as 11-beta hydroxysteroid dehydrogenase inhibitors” (Janssen Pharmaceutica N.V., priority 2004, dated 2013).

In one experiment the target is T1, 11β-HSD1 (Mus musculus, UniProt P50172).
T1 construct: endogenous in cells; host or cells: 3T3-L1 (ATCC-CL-173), differentiated into adipocytes
Briefly: Cellular assay of 11β-HSD1 activity in differentiated 3T3-L1 cells. The experiment is classed as cell-based. Particulars: 4 hour pre-incubation, 10^-5M to 10^-10M, read-out: HSD1 cellular 3T3-L1 Score. On the procedure:
The effects on 11β-HSD1 activity was measured in differentiated 3T3-L1 cells and rat hepatocytes.
Mouse fibroblast 3T3-L1 cells (ATCC-CL-173) were seeded at a density of 16500 cells/ml in 12 well plates and grown for 7 days in DMEM medium (supplemented with 10% heat inactivated foetal calf serum, 2 mM glutamine and 25 mg gentamycin) at 37° C. in a humidified 5% CO2 atmosphere. Medium was refreshed twice a week. Fibroblasts were differentiated into adipocytes at 37° C. in a 5% CO2 humidified atmosphere in growth medium containing 2 μg/ml insulin, 55 μg/ml IBMX and 39.2 μg/ml dexamethasone.
Primary hepatocytes from male rats were seeded on normal Falcon 12 well plates at a density of 250000 cells/well and incubated for 16 hours at 37° C. in a 5% CO2 humidified atmosphere in DMEM-HAM's F12 medium containing 5% Nu-serum, 100 U/ml penicillin, 100 μg/ml streptomycin, 0.25 μg/ml amphotericin B, 50 μg/ml gentamycin sulfate, 5 μg/ml insulin and 392 ng/ml dexamethasone. Following a 4 hour pre-incubation with test compound, 0.5 μCi ^3H-cortisone or dehydrocorticosterone, was added to the 3T3-L1 cultures. One hour later, the medium was extracted on Extrelut^3-columns with 15 ml diethyl ether and the extract was analysed by HPLC as described above. The effects of JNJ-compounds on rat hepatocyte HSD1 activity was measured after an incubation period of 90 minutes with 0.5 μCi^3H-dehydrocorticosterone. Corticosterone formation was analysed by HPLC.
(§1) As for the enzymatic assays, the compounds to be tested were taken from a stock solution and tested at a final concentration ranging from 10^−5M to 10^−10M. From the thus obtained dose response curves, the pIC50 value was calculated and scored as follows; Score 1=pIC50 value<5, Score 2=pIC50 value in the range of 5 to 6, Score 3=pIC50 value>6. (in this table NT stands for Not Tested).

A further experiment concerns the target T2, 11β-HSD2 (Homo sapiens, UniProt P80365).
T2 construct: endogenous in cells; host or cells: HepG2 (ATCC HB-8065)
T2 sequence (P80365 1-405): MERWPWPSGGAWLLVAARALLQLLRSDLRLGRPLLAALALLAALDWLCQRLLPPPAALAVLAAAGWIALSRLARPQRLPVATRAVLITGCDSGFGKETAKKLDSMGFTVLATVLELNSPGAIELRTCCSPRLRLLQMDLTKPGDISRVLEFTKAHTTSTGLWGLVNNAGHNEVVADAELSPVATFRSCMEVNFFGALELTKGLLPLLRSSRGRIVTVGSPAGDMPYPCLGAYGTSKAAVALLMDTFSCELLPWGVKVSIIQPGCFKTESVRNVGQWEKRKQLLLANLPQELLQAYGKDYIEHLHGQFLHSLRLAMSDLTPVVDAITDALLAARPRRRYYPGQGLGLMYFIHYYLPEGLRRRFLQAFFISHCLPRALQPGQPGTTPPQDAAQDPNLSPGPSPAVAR
Briefly: Cellular assay of 11β-HSD2 activity in HepG2 cells. The experiment is classed as cell-based. To be noted: 4 hour pre-incubation, 10^-5M to 10^-10M, read-out: HSD2 cellular HepG2 Score. The method, then: The effects on 11β-HSD2 activity was studied in HepG2 and LCC-PK1-cells HepG2-cells (ATCC HB-8065) were seeded in 12 well plates at a density of 100,000 cells/ml and grown at 37° C. in a humidified 5% CO2 atmosphere in MEM-Rega-3 medium supplemented with 10% heat inactivated foetal calf serum, 2 mM L-glutamine and sodium bicarbonate). Medium was refreshed twice a week.
Following a 4 hour pre-incubation with test compound, 0.5 μCi ^3H-cortisol or corticosterone, was added to the cultures. One hour later, the medium was extracted on Extrelut^3-columns with 15 ml diethyl ether and the extract was analysed by HPLC as described above.
as §1

Some results are limits rather than exact numbers.

T1 sequence (P50172 whole entry): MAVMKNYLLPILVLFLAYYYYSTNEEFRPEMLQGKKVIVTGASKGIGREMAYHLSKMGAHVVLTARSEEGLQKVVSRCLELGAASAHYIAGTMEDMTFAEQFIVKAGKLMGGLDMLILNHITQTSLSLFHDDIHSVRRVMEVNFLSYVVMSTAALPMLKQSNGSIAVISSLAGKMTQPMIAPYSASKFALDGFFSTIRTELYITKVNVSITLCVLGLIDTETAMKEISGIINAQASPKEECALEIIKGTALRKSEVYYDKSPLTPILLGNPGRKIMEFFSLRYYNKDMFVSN

With `Cc1cc(Cl)ccc1OC(C)(C)C(=O)N[C@H]1[C@@H]2CC3C[C@H]1C[C@](NC(=O)CN(C)C)(C3)C2` [Compound 72], the figures for the IC50 on 11β-HSD1 and at 11β-HSD2 were less than 1000 nM and 1 to 10 µM, respectively.

In the case of `Cc1cc(Cl)ccc1OC(C)(C)C(=O)N[C@H]1[C@@H]2CC3C[C@H]1C[C@](NC(=O)CN1CCOCC1)(C3)C2` [Compound 73], the IC50 was less than 1000 nM at 11β-HSD1 and 1 to 10 µM on 11β-HSD2.

For `CC(=O)N[C@@]12CC3C[C@H](C1)[C@H](NC(=O)C(C)(C)Nc1ccc(Br)cc1C)[C@@H](C3)C2` [Compound 74], the IC50 on 11β-HSD1 was less than 1000 nM; at 11β-HSD2 it was 1 to 10 µM.

Turning to `COC(=O)c1cccc(NC(C)(C)C(=O)N[C@H]2[C@@H]3CC4C[C@H]2C[C@](O)(C4)C3)c1` [Compound 75], the IC50 is less than 1000 nM on 11β-HSD1 and more than 10 µM at 11β-HSD2.

Consider `COc1ccc(NC(C)(C)C(=O)N[C@H]2[C@@H]3CC4C[C@H]2C[C@](NC(C)=O)(C4)C3)cc1` [Compound 76], for which the IC50 at 11β-HSD1 is less than 1000 nM; on 11β-HSD2 it was more than 10 µM.

`Cc1ccc(S(=O)(=O)N[C@@]23CC4C[C@H](C2)[C@H](NC(=O)C(C)(C)Oc2ccc(Cl)cc2C)[C@@H](C4)C3)cc1` [Compound 77]: the IC50 at 11β-HSD1 was less than 1000 nM; at 11β-HSD2, more than 10 µM.

As for `CC(C)(Nc1cccc(C(F)(F)F)c1)C(=O)N[C@H]1[C@@H]2CC3C[C@H]1C[C@](NC(=O)CCl)(C3)C2` [Compound 80], the IC50 on 11β-HSD1 was less than 1000 nM; at 11β-HSD2, 1 to 10 µM.

For `CC(C)(Oc1cccc(C(F)(F)F)c1)C(=O)N[C@H]1[C@@H]2CC3C[C@H]1C[C@](N)(C3)C2` [Compound 81], the IC50 at 11β-HSD1 is less than 1000 nM; at 11β-HSD2, more than 10 µM.

Regarding `CC(C)(Oc1cccc(C(F)(F)F)c1)C(=O)N[C@H]1[C@@H]2CC3C[C@H]1C[C@](NS(C)(=O)=O)(C3)C2` [Compound 83], the IC50 at 11β-HSD1 is less than 1000 nM; at 11β-HSD2, 1 to 10 µM.

For the compound `CC(C)(Oc1cccc(Cl)c1)C(=O)N[C@H]1[C@@H]2CC3C[C@H]1C[C@](N)(C3)C2` [Compound 85], the figures for the IC50 at 11β-HSD1 and on 11β-HSD2 were less than 1000 nM and more than 10 µM, respectively.

On to `CCS(=O)(=O)N[C@@]12CC3C[C@H](C1)[C@H](NC(=O)C(C)(C)Oc1cccc(C(F)(F)F)c1)[C@@H](C3)C2` [Compound 87], for which the IC50 on 11β-HSD1 is less than 1000 nM; on 11β-HSD2, 1 to 10 µM.

On to `CC(C)(Oc1cccc(C(F)(F)F)c1)C(=O)N[C@H]1[C@@H]2CC3C[C@H]1C[C@](NS(=O)(=O)CC(F)(F)F)(C3)C2` [Compound 88], for which the IC50 on 11β-HSD1 is less than 1000 nM; at 11β-HSD2 it was 1 to 10 µM.

As for `Cc1ccc(S(=O)(=O)N[C@@]23CC4C[C@H](C2)[C@H](NC(=O)C(C)(C)Oc2cccc(C(F)(F)F)c2)[C@@H](C4)C3)cc1` [Compound 89], the IC50 was less than 1000 nM on 11β-HSD1 and more than 10 µM on 11β-HSD2.

On to `CC(C)(Oc1cccc(Br)c1)C(=O)N[C@H]1[C@@H]2CC3C[C@H]1C[C@](NC(=O)CCl)(C3)C2` [Compound 90], for which the IC50 was less than 1000 nM on 11β-HSD1 and 1 to 10 µM at 11β-HSD2.

For `Cc1cc(Cl)ccc1OC(C)(C)C(=O)N[C@H]1[C@@H]2CC3C[C@H]1C[C@](N1CCC(C)C1=O)(C3)C2` (some centres unmarked) [Compound 91], the IC50 at 11β-HSD1 is less than 1000 nM; at 11β-HSD2, less than 1 µM.

Regarding `CN(C)S(=O)(=O)N[C@@]12CC3C[C@H](C1)[C@H](NC(=O)C(C)(C)Oc1cccc(C(F)(F)F)c1)[C@@H](C3)C2` [Compound 92], the IC50 on 11β-HSD1 was less than 1000 nM; at 11β-HSD2 it was 1 to 10 µM.

As for `CC(C)(Oc1cccc(Br)c1)C(=O)N[C@H]1[C@@H]2CC3C[C@H]1C[C@](N)(C3)C2` [Compound 93], the values for the IC50 on 11β-HSD1 and at 11β-HSD2 were less than 1000 nM and more than 10 µM, respectively.

Consider `CC(C)(Oc1ccc(Cl)cc1)C(=O)N[C@H]1[C@@H]2CC3C[C@H]1C[C@](NC(=O)CCl)(C3)C2` [Compound 94], for which the IC50 at 11β-HSD1 was less than 1000 nM; on 11β-HSD2, 1 to 10 µM.

In the case of `CC(C)(Oc1ccc(Cl)cc1)C(=O)N[C@H]1[C@@H]2CC3C[C@H]1C[C@](N)(C3)C2` [Compound 95], the IC50 is less than 1000 nM on 11β-HSD1 and more than 10 µM on 11β-HSD2.
